Source: patent publication US20200360520A1, “USE OF RIFAMYCIN-QUINOLIZIDONE COUPLING MOLECULE” (priority 2019, published 2020)
Values after ≈ are worked out from the molar mass of the structure shown. Where two headings read alike, the source gives them in different places. Blank lines part the entries; values can stand above or below the molecule they belong to.

Tests used:
Assay type in all cases: cell-based
Mycobacterium fortuitum = test: MIC by micro broth dilution method (resazurin microtiter assay); conditions: Mycolicibacterium fortuitum, MH Culture Medium, read-out: Minimum Inhibitory Concentration (MIC)
Mycodacterium chelonei = test: as above; conditions: MH Culture Medium; Chelonei (standard strain); read-out: Minimum Inhibitory Concentration (MIC)
Mycobacterium abscessus [1] = test: MBC test (plating on agar, CFU count); conditions: for Minimum Bactericidal Concentration (MBC): MH Culture Medium; for MBC: Mycobacteroides abscessus, 7H9 Culture Medium, read-out: Minimum Bactericidal Concentration (MBC)
Mycobacterium abscessus [2] = test: MIC by micro broth dilution method (resazurin microtiter assay); conditions: Mycobacteroides abscessus, read-out: Minimum Inhibitory Concentration (MIC)
Mycobacterium kansasii [3] = test: MBC test (plating on agar, CFU count); conditions: Mycobacterium kansasii, Mycobacterium kansasii, read-out: Minimum Bactericidal Concentration (MBC)
Mycobacterium avium [4] = test: MBC test (plating on agar, CFU count); conditions: Mycobacterium avium, read-out: Minimum Bactericidal Concentration (MBC)
[5] = test system: Mycobacterium massiliense; test: MIC by micro broth dilution method (resazurin microtiter assay); conditions: Mycobacteroides abscessus, MH Culture Medium, read-out: Minimum Inhibitory Concentration (MIC)
[6] = test system: Mycobacterium intracellulare; test: as above; conditions: Mycobacterium intracellulare, MH Culture Medium, read-out: Minimum Inhibitory Concentration (MIC)
Mycobacterium kansasii [7] = test: as above; conditions: Mycobacterium kansasii, Mycobacterium kansasii, read-out: Minimum Inhibitory Concentration (MIC)
Mycobacterium avium [8] = test: as above; conditions: read-out: Minimum Inhibitory Concentration (MIC)
[9] = clinically isolated strain Fortuitum (S103)
[10] = clinically isolated strain Fortuitum (S111)
[11] = 7H9 Culture Medium, Mycobacterium avium Smooth
[12] = MH Culture Medium, Mycobacterium avium Smooth
[13] = clinically isolated strain Massiliense (D10)
[14] = clinically isolated strain Massiliense (D14)
[15] = clinically isolated strain Massiliense (D18)
[16] = Intracellulare (standard strain)
[17] = clinically isolated strain Intracellulare (S90)
[18] = clinically isolated strain Intracellulare (S261)
[19] = clinically isolated strain Intracellulare (S269)
[20] = clinically isolated strain Intracellulare (S290)
[21] = clinically isolated strain Intracellulare (S291)
[22] = clinically isolated strain Intracellulare (S298)
[23] = clinically isolated strain Intracellulare (S541)
[24] = clinically isolated strain Intracellulare (S623)
[25] = clinically isolated strain Intracellulare (ZPS)
[26] = clinically isolated strain intracellulare (S442)
[27] = MH Culture Medium, Kansasii (standard strain)
[28] = MH Culture Medium, clinically isolated strain Kansasii (S9)
[29] = MH Culture Medium, clinically isolated strain Kansasii (S199)
[30] = MH Culture Medium, clinically isolated strain Kansasii (S520)
[31] = MH Culture Medium, clinically isolated strain Kansasii (S609)
[32] = 7H9 Broth, Mycobacterium avium Smooth
[33] = MH Broth, Mycobacterium avium Smooth
[34] = MH Culture Medium, Avium (standard strain)
[35] = MH Culture Medium, clinically isolated strain Avium (S31)
[36] = MH Culture Medium, clinically isolated strain Avium (S123)
[37] = MH Culture Medium, clinically isolated strain Avium (S559)
[38] = MH Culture Medium, clinically isolated strain Avium (S568)
[39] = MH Culture Medium, clinically isolated strain Avium (S577)
[40] = MH Culture Medium, clinically isolated strain Avium (S597)
[41] = MH Culture Medium, clinically isolated strain Avium (S602)

MIC (Mycobacterium fortuitum; Fortuitum (standard strain)): 16 µg/mL (≈ 93.5 µM)
MIC (Mycobacterium fortuitum; [9]): 8 µg/mL (≈ 46.7 µM)
MIC (Mycobacterium fortuitum; [10]): 16 µg/mL (≈ 93.5 µM)
MIC (Mycodacterium chelonei): 16 µg/mL (≈ 93.5 µM)
MIC (Mycobacterium abscessus [2]; 7H9 Broth): > 64 µg/mL
MIC (Mycobacterium abscessus [2]; MH Broth): > 64 µg/mL
MIC [5, 13]: 16 µg/mL (≈ 93.5 µM)
MIC [5, 14]: 16 µg/mL (≈ 93.5 µM)
MIC [5, 15]: 8 µg/mL (≈ 46.7 µM)
MIC [6, 16]: 8 µg/mL (≈ 46.7 µM)
MIC [6, 17]: 16 µg/mL (≈ 93.5 µM)
MIC [6, 18]: 16 µg/mL (≈ 93.5 µM)
MIC [6, 19]: 16 µg/mL (≈ 93.5 µM)
MIC [6, 20]: 8 µg/mL (≈ 46.7 µM)
MIC [6, 21]: 8 µg/mL (≈ 46.7 µM)
MIC [6, 22]: 16 µg/mL (≈ 93.5 µM)
MIC [6, 23]: 16 µg/mL (≈ 93.5 µM)
MIC [6, 24]: 8 µg/mL (≈ 46.7 µM)
MIC [6, 25]: 8 µg/mL (≈ 46.7 µM)
MIC [6, 26]: 8 µg/mL (≈ 46.7 µM)
MIC (Mycobacterium kansasii [7]; 7H9 Broth): > 64 µg/mL
MIC (Mycobacterium kansasii [7]; MH Broth): > 64 µg/mL
MIC (Mycobacterium kansasii [7]; [27]): 8 µg/mL (≈ 46.7 µM)
MIC (Mycobacterium kansasii [7]; [28]): 8 µg/mL (≈ 46.7 µM)
MIC (Mycobacterium kansasii [7]; [29]): 8 µg/mL (≈ 46.7 µM)
MIC (Mycobacterium kansasii [7]; [30]): 8 µg/mL (≈ 46.7 µM)
MIC (Mycobacterium kansasii [7]; [31]): 8 µg/mL (≈ 46.7 µM)
MIC (Mycobacterium avium [8]; [32]): > 64 µg/mL
MIC (Mycobacterium avium [8]; [33]): > 64 µg/mL
MIC (Mycobacterium avium [8]; [34]): 8 µg/mL (≈ 46.7 µM)
MIC (Mycobacterium avium [8]; [35]): 16 µg/mL (≈ 93.5 µM)
MIC (Mycobacterium avium [8]; [36]): 8 µg/mL (≈ 46.7 µM)
MIC (Mycobacterium avium [8]; [37]): 8 µg/mL (≈ 46.7 µM)
MIC (Mycobacterium avium [8]; [38]): 8 µg/mL (≈ 46.7 µM)
MIC (Mycobacterium avium [8]; [39]): 8 µg/mL (≈ 46.7 µM)
MIC (Mycobacterium avium [8]; [40]): 8 µg/mL (≈ 46.7 µM)
MIC (Mycobacterium avium [8]; [41]): 32 µg/mL (≈ 187 µM)
SMILES: Cc1ncc([N+](=O)[O-])n1CCO [Metronidazole, metronidazole]
Minimum Bactericidal Concentration (MBC) (Mycobacterium abscessus [1]): >64 µg/mL
MBC (Mycobacterium abscessus [1]): > 64 µg/mL
MBC (Mycobacterium kansasii [3]; 7H9 Culture Medium): > 64 µg/mL
MBC (Mycobacterium kansasii [3]; MH Culture Medium): > 64 µg/mL
MBC (Mycobacterium avium [4]; [11]): > 64 µg/mL
MBC (Mycobacterium avium [4]; [12]): > 64 µg/mL

SMILES: CO[C@H]1/C=C/O[C@@]2(C)Oc3c(C)c(O)c4c(O)c(c(/C=N/N5CCN(C)CC5)c(O)c4c3C2=O)NC(=O)/C(C)=C\C=C\[C@H](C)[C@H](O)[C@@H](C)[C@@H](O)[C@@H](C)[C@H](OC(C)=O)[C@@H]1C [Rifampicin, rifampicin]
MIC (Mycobacterium fortuitum; Fortuitum (standard strain)): > 64 µg/mL
MIC (Mycobacterium fortuitum; [9]): > 64 µg/mL
MIC (Mycobacterium fortuitum; [10]): 64 µg/mL (≈ 77.8 µM)
MIC (Mycodacterium chelonei): > 64 µg/mL
Minimum Bactericidal Concentration (MBC) (Mycobacterium abscessus [1]): >64 µg/mL
MBC (Mycobacterium abscessus [1]): > 64 µg/mL
MIC (Mycobacterium abscessus [2]; 7H9 Broth): > 64 µg/mL
MIC (Mycobacterium abscessus [2]; MH Broth): > 64 µg/mL
MBC (Mycobacterium kansasii [3]; 7H9 Culture Medium): 4 µg/mL (≈ 4.86 µM)
MBC (Mycobacterium kansasii [3]; MH Culture Medium): 4 µg/mL (≈ 4.86 µM)
MBC (Mycobacterium avium [4]; 7H9 Culture Medium, Mycobacterium avium Rough): > 64 µg/mL
MBC (Mycobacterium avium [4]; [11]): 4 µg/mL (≈ 4.86 µM)
MBC (Mycobacterium avium [4]; [12]): 4 µg/mL (≈ 4.86 µM)
MIC [5, 13]: > 64 µg/mL
MIC [5, 14]: > 64 µg/mL
MIC [5, 15]: > 64 µg/mL
MIC [6, 16]: 0.25 µg/mL (≈ 0.304 µM)
MIC [6, 17]: 8 µg/mL (≈ 9.72 µM)
MIC [6, 18]: 16 µg/mL (≈ 19.4 µM)
MIC [6, 19]: 4 µg/mL (≈ 4.86 µM)
MIC [6, 20]: 4 µg/mL (≈ 4.86 µM)
MIC [6, 21]: 4 µg/mL (≈ 4.86 µM)
MIC [6, 22]: 4 µg/mL (≈ 4.86 µM)
MIC [6, 23]: 16 µg/mL (≈ 19.4 µM)
MIC [6, 24]: 8 µg/mL (≈ 9.72 µM)
MIC [6, 25]: 2 µg/mL (≈ 2.43 µM)
MIC [6, 26]: 2 µg/mL (≈ 2.43 µM)
MIC (Mycobacterium kansasii [7]; 7H9 Broth): 16 µg/mL (≈ 19.4 µM)
MIC (Mycobacterium kansasii [7]; MH Broth): 16 µg/mL (≈ 19.4 µM)
MIC (Mycobacterium kansasii [7]; [27]): 0.125 µg/mL (≈ 0.152 µM)
MIC (Mycobacterium kansasii [7]; [28]): 0.125 µg/mL (≈ 0.152 µM)
MIC (Mycobacterium kansasii [7]; [29]): 0.0625 µg/mL (≈ 0.0759 µM)
MIC (Mycobacterium kansasii [7]; [30]): 0.0625 µg/mL (≈ 0.0759 µM)
MIC (Mycobacterium kansasii [7]; [31]): 0.0625 µg/mL (≈ 0.0759 µM)
MIC (Mycobacterium avium [8]; 7H9 Broth, Mycobacterium avium Rough): 8 µg/mL (≈ 9.72 µM)
MIC (Mycobacterium avium [8]; [32]): 0.5 µg/mL (≈ 0.608 µM)
MIC (Mycobacterium avium [8]; MH Broth, Mycobacterium avium Rough): 8 µg/mL (≈ 9.72 µM)
MIC (Mycobacterium avium [8]; [33]): 1 µg/mL (≈ 1.22 µM)
MIC (Mycobacterium avium [8]; [34]): 0.25 µg/mL (≈ 0.304 µM)
MIC (Mycobacterium avium [8]; [35]): 0.0625 µg/mL (≈ 0.0759 µM)
MIC (Mycobacterium avium [8]; [36]): 8 µg/mL (≈ 9.72 µM)
MIC (Mycobacterium avium [8]; [37]): 0.125 µg/mL (≈ 0.152 µM)
MIC (Mycobacterium avium [8]; [38]): 4 µg/mL (≈ 4.86 µM)
MIC (Mycobacterium avium [8]; [39]): 0.125 µg/mL (≈ 0.152 µM)
MIC (Mycobacterium avium [8]; [40]): 8 µg/mL (≈ 9.72 µM)
MIC (Mycobacterium avium [8]; [41]): 2 µg/mL (≈ 2.43 µM)
